The record followed here is patent US20090131444A1 (published 2009).

Structures can show the parent of a compound that is named as a salt.

Broadly, the melting point is the temperature of the solid-liquid transition. Compound `COc1ccc2ncc(Cl)c(OC[C@@H]3CC[C@@H](NCc4cc5c(cn4)OCCO5)CO3)c2c1` (as salt: hydrochloride) came in with a melting point of 191 °C.
With `COc1ccc2ncc(Cl)c(NC(=O)[C@@H]3CC[C@@H](NCc4cc5c(cn4)OCCO5)CO3)c2c1` (as salt: hydrochloride) the figure was 220 °C; with `COc1ccc2nccc(NC(=O)[C@@H]3CC[C@@H](NCc4cc5c(cn4)OCCO5)CO3)c2n1` (as salt: hydrochloride), > 230 °C (dec.).
